# Several values for one entry are separate records, joined by “and”; a condition that tells them apart may be missing. Equal values may be shown once. Read-outs that look alike come from different tables or passages of the source.
# Columns and labels:
# [1] = biological target: T1, telomerase (Homo sapiens, UniProt O14746); assay: Telomerase repeat processivity IC50: modified dNTP titrated into reactions with all four natural dNTPs; assay type: biochemical; design: made in house; anti-FLAG immunopurification, eluted with 3xFLAG peptide
# T1 sequence (O14746 whole entry): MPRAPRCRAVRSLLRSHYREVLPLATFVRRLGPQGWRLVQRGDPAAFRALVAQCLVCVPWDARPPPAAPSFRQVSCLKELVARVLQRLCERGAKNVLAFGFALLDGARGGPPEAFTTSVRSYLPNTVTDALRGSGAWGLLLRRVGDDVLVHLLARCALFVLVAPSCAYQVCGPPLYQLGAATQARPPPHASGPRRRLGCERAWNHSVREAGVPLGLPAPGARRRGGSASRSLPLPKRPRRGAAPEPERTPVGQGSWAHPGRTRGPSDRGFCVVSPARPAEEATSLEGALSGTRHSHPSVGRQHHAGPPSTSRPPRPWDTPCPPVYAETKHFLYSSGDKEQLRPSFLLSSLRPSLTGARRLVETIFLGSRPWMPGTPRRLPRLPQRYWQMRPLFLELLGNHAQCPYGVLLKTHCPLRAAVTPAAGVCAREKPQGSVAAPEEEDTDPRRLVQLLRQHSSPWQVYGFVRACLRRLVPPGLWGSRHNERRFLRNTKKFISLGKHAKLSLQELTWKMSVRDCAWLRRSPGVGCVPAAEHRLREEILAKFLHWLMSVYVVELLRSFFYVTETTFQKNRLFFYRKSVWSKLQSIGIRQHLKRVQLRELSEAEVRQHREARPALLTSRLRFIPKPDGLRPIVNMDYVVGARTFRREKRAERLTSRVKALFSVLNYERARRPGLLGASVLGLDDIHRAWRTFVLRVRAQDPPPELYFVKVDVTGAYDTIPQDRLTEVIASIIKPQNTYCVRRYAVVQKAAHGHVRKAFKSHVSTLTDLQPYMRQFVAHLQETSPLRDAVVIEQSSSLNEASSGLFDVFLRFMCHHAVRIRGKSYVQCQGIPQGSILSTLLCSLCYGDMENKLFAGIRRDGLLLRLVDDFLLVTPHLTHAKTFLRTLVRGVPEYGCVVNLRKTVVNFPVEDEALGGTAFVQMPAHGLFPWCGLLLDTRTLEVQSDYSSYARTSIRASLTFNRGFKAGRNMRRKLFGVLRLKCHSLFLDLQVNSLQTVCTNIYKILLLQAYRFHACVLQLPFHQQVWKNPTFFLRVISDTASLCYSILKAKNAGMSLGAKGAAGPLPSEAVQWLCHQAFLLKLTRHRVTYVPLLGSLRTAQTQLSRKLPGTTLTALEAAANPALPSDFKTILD
# In short: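 Immunopurified human telomerase reactions with cellular-relevant levels of all four natural dNTPs plus modified dNTP titrated 0–10,000 μM, 1 h at 37 °C; products resolved on denaturing gels and phosphorimaged. Repeat processivity R1/2 = −ln(2)/slope of ln(100−%LB) vs repeat number; IC50 is concentration halving bulk repeat processivity.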
# [2] = biological target: T1, telomerase; assay: Telomerase extension after insertion of modified dNTP (percent of product terminated at each template position); assay type: biochemical; design: made in house; anti-FLAG immunopurification, eluted with 3xFLAG peptide; conditions: for Percent of Total Product: Fig 4a, Primer 3, 50 μM each dTTP, dGTP and dATP or 2-OH-dATP, Mean
# Protocol: Direct telomerase assays were conducted with 5 nM ^32P-end labeled primer a and d Primer 3 (AGGGTT)3, b Primer 1 (TTAGGG)3, or c Primer 2 […]. […] Products were separated on denaturing gels. Letters on the y-axis of the graph indicate the template base; P indicates unextended 18-mer primer. Graphs represent percent of product terminated at each template position as a function of total products. Images are representative of, and data are the mean ± s.d. from, three independent experiments. Source data are provided as a Source Date file.
# The reactions were started by the addition of 3 μl of immunopurified telomerase eluent, incubated at 37 °C for 1 h, then terminated with 2 μl of […] and heat inactivated at 65 °C for 20 min. An equal volume of loading buffer (94% formamide, 0.1× TBE, 0.1% bromophenol blue, 0.1% xylene cyanol) was added to the reaction eluent. The samples were heat denatured for 10 min at 100 °C and loaded onto a 14% denaturing acrylamide gel (7 M urea, 1× TBE) and electrophoresed for 90 min at constant 38 W. Samples were imaged using a Typhoon phosphorimager (GE Healthcare). Percent primer extension was calculated with ImageQuant TL 8.2 by measuring the intensity of each product band and dividing by the total radioactivity in the lane or total products, as indicated in the figure legends.
compound,measurement,setting,value
Nc1nc(O)nc2c1ncn2C1CC(O)C(COP(=O)(O)OP(=O)(O)OP(=O)(O)O)O1 (stereo not shown) [2-OH-dATP],YIntercept (line fit of ln(100-%LB) vs # telomere repeats),[1]; 2-OH-dATP 31μM,3.86 and 4.26 and 3.87
same,ln(100-%LB),"[1]; 2-OH-dATP 31μM, telomere repeat 1",3.80 and 4.29 and 3.78
same,ln(100-%LB),"[1]; 2-OH-dATP 31μM, telomere repeat 2",3.30 and 3.65 and 3.08
same,ln(100-%LB),"[1]; 2-OH-dATP 31μM, telomere repeat 3",2.75 and 3.04 and 2.41
same,ln(100-%LB),"[1]; 2-OH-dATP 31μM, telomere repeat 4",2.47 and 2.74 and 2.04
same,ln(100-%LB),"[1]; 2-OH-dATP 31μM, telomere repeat 5",2.09 and 2.42 and 1.67
same,ln(100-%LB),"[1]; 2-OH-dATP 31μM, telomere repeat 6",1.74 and 2.03 and 1.15
same,Processivity R 1/2,[1]; 2-OH-dATP 31.25 μM,2.08 and 3.03 and 1.6
same,Processivity R 1/2,[1]; 2-OH-dATP 62.5 μM,1.82 and 1.19 and 1.25
same,Processivity R 1/2,[1]; 2-OH-dATP 250μM,0.71 and 1.05 and 0.94
same,YIntercept (line fit of ln(100-%LB) vs # telomere repeats),[1]; 2-OH-dATP 250μM,4.34 and 4.78 and 4.14
same,ln(100-%LB),"[1]; 2-OH-dATP 250μM, telomere repeat 1",3.46 and 4.32 and 3.82
same,ln(100-%LB),"[1]; 2-OH-dATP 250μM, telomere repeat 2",2.39 and 3.46 and 2.75
same,Processivity R 1/2,[1]; 2-OH-dATP 500μM,0.82 and 0.52 and 1.02
same,YIntercept (line fit of ln(100-%LB) vs # telomere repeats),[1]; 2-OH-dATP 500μM,3.92 and 4.75 and 4.04
same,ln(100-%LB),"[1]; 2-OH-dATP 500μM, telomere repeat 1",3.41 and 4.41 and 3.82
same,ln(100-%LB),"[1]; 2-OH-dATP 500μM, telomere repeat 2",2.30 and 3.46 and 2.66
same,YIntercept (line fit of ln(100-%LB) vs # telomere repeats),[1]; 2-OH-dATP 750μM,4.21 and 5.17 and 4.34
same,ln(100-%LB),"[1]; 2-OH-dATP 750μM, telomere repeat 1",2.99 and 4.03 and 3.90
same,YIntercept (line fit of ln(100-%LB) vs # telomere repeats),[1]; 2-OH-dATP 1000μM,4.31 and 5.20 and 4.71
same,ln(100-%LB),"[1]; 2-OH-dATP 1000μM, telomere repeat 1",2.98 and 4.07 and 3.49
same,ln(100-%LB),"[1]; 2-OH-dATP 1500μM, telomere repeat 2",0.48
same,Processivity R 1/2,[1]; 2-OH-dATP 2000 μM,0
same,IC50,"[1]; 2-OH-dATP, mean of N1-N3, SD 66.28, read-out: Mean IC50 (processivity R 1/2)",103 µM
same,"Bottom (best-fit, processivity R 1/2 vs log concentration)","[1]; 2-OH-dATP, per replicate N1-N3",0.09 and -0.00587 and 0.62
same,HillSlope (processivity),"[1]; 2-OH-dATP, per replicate N1-N3",-1.28 and -0.83 and -0.032
same,"Span (best-fit, processivity R 1/2 vs log concentration)","[1]; 2-OH-dATP, per replicate N1-N3",2.29 and 2.84 and 1.84
same,"Top (best-fit, processivity R 1/2 vs log concentration)","[1]; 2-OH-dATP, per replicate N1-N3",2.38 and 2.84 and 2.47
same,LogIC50 (processivity),"[1]; 2-OH-dATP, per replicate N1-N3, concentration in μM",2.24 and 1.99 and 1.60
same,IC50,"[1]; 2-OH-dATP, per replicate N1-N3, read-out: IC50 (processivity R 1/2)",172 µM and 97 µM and 39.4 µM
same,IC50,"[1]; cellular relevant natural dNTPs, modified dNTP titrated 0 to 10,000 μM, based on repeat processivity, mean ± SD, read-out: Telomerase processivity IC50",103 ± 66 µM
same,IC50,"[1]; log of processivity IC50 (concentration in μM), Supplementary Fig 8b, read-out: Log IC50 (converted)",126 µM
same,Extension after insertion of the modified dNTP (in words),"[2]; 50 μM each dNTP, analog substituted for natural dNTP",translocation to add the next repeat is greatly compromised
same,Percent of Total Product,[2]; terminated at rA3,5.06%
same,Percent of Total Product,[2]; terminated at rA4,1.19%
same,Percent of Total Product,[2]; terminated at rC1,1.62%
same,Percent of Total Product,[2]; terminated at rC2,10.51%
same,Percent of Total Product,[2]; terminated at rC6,68.71%
same,Percent of Total Product,[2]; terminated at rU5 (first),12.42%
same,Percent of Total Product,"[2]; terminated at rU5 (second, after translocation)",0.49%

# Source: publication PMC7576608, “Mechanisms of telomerase inhibition by oxidized and therapeutic dNTPs” (Nature Communications, 2020)
